Values of other authors as cited in patent publication US20120157405A1, “Methods and Compositions for the Treatment of "Burning Feet Syndrome"” (priority 2010, published 2012).
Like-named read-outs stand apart in the source and are kept apart here.

Columns and labels:
“Burning Feet Syndrome” [1] = conditions: 53 cases; parenteral calcium pantothenate given after the other vitamins
skin irritation = conditions: topical adjunct skin care
“Burning Feet Syndrome” [2] = conditions: 6 mg intramuscular injections
mild diabetic neuropathy = conditions: 480 mg daily, after 12 months
vitamin B12 deficiency = conditions: oral supplementation only
[3] = test system: symptomatic diabetic polyneuropathy; conditions: symptomatic diabetic polyneuropathy and compressive radiculopathy syndrome from disc-nerve root conflict
diabetic neuropathy [4] = conditions: double-blind trial
neuropathic pain = conditions: double-blind study
[5] = test system: symptomatic diabetic polyneuropathy
[6] = test system: nerve conduction and function; conditions: 900 mg, six-month study
peripheral neuropathy = conditions: daily high-dose supplementation for two years, person
[7] = test system: jejunal transport of water, Na and Cl; conditions: in vivo jejunal perfusion
[8] = test system: Diabetes-Induced Oxidative Stress In Gastrointestinal Tissues; conditions: exogenously administered, diabetic rats
[9] = test system: severe diabetic peripheral neuropathy
[10] = test system: chemically induced diabetic rats
diabetic neuropathy [11] = conditions: over a one-year period
[12] = test system: neuropathy associated with some chemotherapy drugs; conditions: two studies
[13] = test system: cardiac autonomic neuropathy; conditions: people with diabetes
[14] = test system: neuropathy associated with diabetes
[15] = test system: painful peripheral diabetic neuropathy; conditions: 320 mg/day compared to 150 mg/day, over 6 weeks
[16] = test system: peripheral neuropathy symptoms; conditions: niacin alone
[17] = test system: streptozotocin-induced diabetic rats; conditions: 1.4 to 1.5 g/kg body weight, 7 weeks
diabetic neuropathy [18] = conditions: animal studies
[19] = test system: complications among the major targets of diabetes; conditions: in vivo
[20] = test system: sciatic pain caused by herniated disc
[21] = after one year of treatment, all patients

Cc1ncc(C[n+]2csc(CCO)c2C)c(N)n1 [thiamine]
outcome of treatment of “Burning Feet Syndrome” (“Burning Feet Syndrome” [1]): failed

CC(C)(CO)[C@@H](O)C(=O)NCCCO [dexpanthenol]
symptoms of skin irritation (dryness, roughness, scaling, pruritus, erythema, erosion/fissure) (skin irritation): considerably improves symptoms of skin irritation

Cc1cc2nc3c(=O)[nH]c(=O)nc-3n(C[C@H](O)[C@H](O)[C@H](O)CO)c2cc1C [riboflavin]
outcome of treatment of “Burning Feet Syndrome” (“Burning Feet Syndrome” [1]): failed
adverse reactions (“Burning Feet Syndrome” [2]): no reported adverse reactions
time until the burning pain subsided (“Burning Feet Syndrome” [2]): ≤ 3 days

calcium pantothenate
outcome of treatment of “Burning Feet Syndrome” (“Burning Feet Syndrome” [1]): cure

CCCCC/C=C\C/C=C\C/C=C\CCCCC(=O)O [GLA, gamma linolenic acid]
outcome versus placebo group (mild diabetic neuropathy): significantly better than the placebo group

vitamin B12
patients with low B12 levels whose deficiency was corrected (vitamin B12 deficiency): ~50%

O=C(O)CCCCC1CCSS1 (stereo not drawn) [Alpha-lipoic acid]
acute microcirculation occlusion (microcirculation; in vivo): significantly improve
microcirculation (microcirculation; patients with diabetic polyneuropathy): significant improvement in microcirculation
pain, paresthesia, and numbness [3]: reduced the pain, paresthesia, and numbness
sensory symptoms and pain of diabetic neuropathy (diabetic neuropathy [4]): rapidly and significantly reduces sensory symptoms and pain of diabetic neuropathy
nerve functionality and neuropathic pain (neuropathic pain): helped the recovery of nerve functionality and decrease neuropathic pain
time at which TSS improvement was noted ([5]; oral 600 milligrams and 1200 milligrams): 2 weeks
side effects ([5]; oral 600 to 1800 milligrams): dose-dependent increase in the incidence of nausea
time at which TSS improvement was noted ([5]; oral 1800 milligrams): the end of the first week
Total Symptom Score (TSS) ([5]; oral therapy, 600 to 1800 milligrams): significant improvement

COc1cc(/C=C/C(=O)CC(=O)/C=C/c2ccc(O)c(OC)c2)ccc1O [curcumin]
intracellular superoxide anion (O2) production (DM arterioles; DM arterioles, hydroethidine probe, low or high doses): significantly reduced
diabetes-induced vascular PKC-β11 expression (DM arterioles; high dose): diminished
Acetylcholine (ACh) responses (DM arterioles; low and high doses (30 and 300 mg/kg)): significantly improved

vitamin E
nerve conduction [6]: mild to moderate defective nerve conduction was improved
disease progression and neuropathy (peripheral neuropathy): slowed disease progression and produced significant improvement in their neuropathy

N=C(N)NCCC[C@H](N)C(=O)O [L-arginine]
jejunal transport of water, Na and Cl [7]: dose-dependent pro-secretor effect
oxidative stress in the gastrointestinal tract [8]: decrease the oxidative stress in the gastrointestinal tract

O=C(O)CCCC[C@@H]1SC[C@@H]2NC(=O)N[C@@H]21 [biotin]
paresthesias [9, 21]: free of paresthesias
walking distance without help [9, 21]: more than 300 meters
symptoms of peripheral neuropathy ([9]; within four to eight weeks after biotin administration): objective improvement

CC(=O)O[C@H](CC(=O)[O-])C[N+](C)(C)C [acetyl-L-carnitine]
nerve dysfunctions [10]: A number of nerve dysfunctions were corrected
effects on glucose, insulin, or free fatty acids levels (diabetic animals; diabetic animals): without any adverse effects
nerve conduction velocity (diabetic animals; diabetic animals): maintained near normal nerve conduction velocity
nerve regeneration (diabetic animals; diabetic nerve degeneration and neuropathy, after experimental injury): accelerated nerve regeneration
nerve conduction velocity and pain (diabetic neuropathy [11]): improved nerve conduction velocity and reduced pain
chemotherapy-associated neuropathy [12]: can limit the neuropathy
cardiac autonomic neuropathy [13]: appeared to help prevent or slow cardiac autonomic neuropathy
sural nerve fiber numbers and regenerating nerve fiber clusters ([14]; 52 weeks): significant improvement
vibratory perception ([14]; both studies): improved
pain ([14]; daily doses of 500 mg and 1000 mg, 52 weeks): significant reductions in pain

O=C(O)c1cccnc1 [nicotinic acid]
outcome of treatment of “Burning Feet Syndrome” (“Burning Feet Syndrome” [1]): failed

C/C(=C(\CCOP(=O)(O)O)SC(=O)c1ccccc1)N(C=O)Cc1cnc(C)nc1N [benfotiamine]
therapeutic effectiveness [15]: most effective in large doses
alcoholic polyneuropathy (alcoholic polyneuropathy; benfotiamine versus combination with vitamin B6 and B12): significant improvement
adverse effects (alcoholic polyneuropathy; double-blind study): no therapy-specific adverse effects
pain and co-ordination (alcoholic polyneuropathy; double-blind study): improvement was evident

O=C(O)c1cccnc1 [niacin]
peripheral neuropathy symptoms [16]: does not help peripheral neuropathy symptoms

CC(=O)N[C@@H](CS)C(=O)O [NAC, N-Acetylcysteine]
effect on diabetic neuropathy [17]: protective effects
neuropathy (diabetic neuropathy [18]): can inhibit diabetic neuropathy and protect against neuropathies caused by chemotherapy drugs

NCCS(=O)(=O)O [taurine]
severity of complications of diabetes (retina, neuron, kidney) [19]: diminishes the severity of complications

O=C(O)CCCCC1CCSS1 (centres unmarked) [Thioctic acid]
treatment of sciatic pain [20]: appears to be effective
